System: Candida albicans
Assay: MIC serial dilution assay
Format: cell-based
Conditions: Candida albicans DSM1665; overnight, 30 °C; reference nystatin 1 mg/mL; read-out: Minimum Inhibitory Concentration (MIC)
Description: Compounds 1, 2, 4 and 5 were dissolved in MeOH (1 mg/mL) for the antimicrobial activity assay, while compound 3 was dissolved in MeOH: DMSO 9+1 (1 mg/mL). The solvents were also used as negative controls.
Minimum inhibitory concentrations (MIC) were determined in a serial dilution assay, as described previously; a detailed protocol can be found in the Supporting Information. The compounds (1 mg/mL) were diluted to a range of 66.7 to 0.52 µg/mL and incubated with the test organisms overnight. Inhibition of growth was visually evaluated the next day: the MIC is defined as the lowest concentration of the test compound where no growth of the test organism was observed. Various test organisms of fungal and bacterial origin were tested to cover a broad range of microorganisms. This selection is also being used as a standard test panel in our attempts to discover new anti-infectives, as it represents a broad spectrum of pathogens of clinical interest, as well as sensitive indicator strains (bacteria: Bacillus subtilis, Staphylococcus aureus, Micrococcus luteus, Chromobacterium violaceum, Escherichia coli and Pseudomonas aeruginosa; mycobacteria: Mycolicibacterium smegmatis and fungi: Candida albicans, Schizosaccharomyces pombe, Mucor hiemalis, Pichia anomala and Rhodotorula glutinis).
Protocol: Antimicrobial Activi ty Assay
The assay was conducted as a minimum inhi bitory concentration (MIC) assay in 96-well ro und-bottom mi crotiter pl ate s usi ng the p ar ameter s su mm ari zed i n T a bl e S 1 and as already described i n [S1].
Stocks of the test organi sms were generated by growing the organisms o ver ni ght i n 50 mL shaki ng fl asks fi ll ed wi th 25 mL of the growth medi um at 140 rpm (for media and temperatures see Table S1). If the organisms were well grown the ne xt day, which was checked by occurrence of an optical density (OD)>30 of the suspension (OD600 nm for bacteria, OD548 nm for fungi and M. smegma tis) , aliquots of these were stored i n 1.5 mL reaction tube s in a freezer at −80 °C for up to 12 mo nths . Upon use, aliquots were unth awed and the OD of the suspension measured and adjusted by diluting with the respective growth medi um. OD600 nm w as adj usted to 0.01 and OD548 nm to 0.1.
Subse que ntly, 150 µL o f the adjusted suspensions were added to all wells of a 96-wel l microtiter pl ate (one test organi sm per plate). In row A, additional 130 µL of suspensions plus 20 µL of the test compounds (1 mg/mL) and the controls (one compound/column) were added. MeOH as well as MeOH:DMSO 9+1 were used as negative controls, while different positive controls (refer ences) were used for the test organisms (see Tabl e S1). Then, starti ng from row A, 150 µ L of the suspension were transferred to the next row, the contents thoroughly mixed, and 150 µ L transferred to the following row.
The remaining 150 µ L after row H were discarded. […]
compounds, ranging from 66.7 µg/mL i n row A to 0.52 µg/mL i n row H.
The microtiter plates were then incubated overnight o n a microplate shaker at 800 rpm at 30 or 37 °C (see Table S1) and were visually evaluated the next day. The MIC is defined as the lowest concentration were no growth of the test organism was o bserved. A lower MIC thus corresponds to a higher antimicrobial activity of the test compound.
Table S1: MIC assay ex per i men t parameters test organism strain No. growth incubation positive control (reference) […]
Candida albicans DSM1665 MYC 3 30 nyst ati n 1.0 mg/mL […]
Rhodotorula glutinis DSM10134 MYC 3 30 nyst ati n 1.0 mg/mL
1 MHB: Müller-Hinton Broth (SN X927.1, Ca r l Roth GmbH, Karlsruhe, Germany) 2 7H9+ADC: Middlebrook 7H9 Broth Base + Middlebrook ADC Growth Supplement (SN M0678+M0553, Merck, Darmstadt, Germany)
3 MYC: 1 % w/v, bacto peptone, 1% w/v yeast extract, 2 % w /v glycerol, pH 6.3 [S1] Helaly, S.E.; Ashrafi, S.; Teponno, R.B.; Bernecker, S.; Dababat, A.A.; Maier, W.; Stadler, M.
Nematicidal Cyclic Lipodepsipeptides and a Xanthocillin Derivative from a Phaeosphariaceous […]

| MIC | SMILES |
| --- | --- |
| > 66.7 µg/mL | Oc1cccc2c3c(ccc12)-c1ccc(O)c2c(O)ccc-3c12 [Compound 1, viridistratin A] |
| > 66.7 µg/mL | COc1cccc2c3c(ccc12)-c1ccc(O)c2c(O)ccc-3c12 [Compound 2, viridistratin B] |
| > 66.7 µg/mL | COc1cccc2c3c(ccc12)-c1ccc(O)c2c(OC)ccc-3c12 [Compound 3, viridistratin C] |
| > 66.7 µg/mL | O=C1CCC(=O)c2c1c(O)cc1c2-c2ccc(O)c3c(O)ccc-1c23 [Compound 5, truncatone C] |

| SMILES | MIC |
| --- | --- |
| O=C1C[C@H]2C(=C3CCC(=O)c4c(O)ccc2c43)c2cccc(O)c21 [Compound 4, truncatone A] | > 66.7 µg/mL |

— article PMC7277860, “Viridistratins A−C, Antimicrobial and Cytotoxic Benzo[j]fluoranthenes from Stromata of Annulohypoxylon viridistratum (Hypoxylaceae, Ascomycota)” (Biomolecules, 2020)
